The source of these data is the supplement of paper PMC5412046.

SMILES strings stand for the structures. Structures can show the parent of a compound that is named as a salt.

The test system of one test is SB.msgc-1. The test can be described thus: AC50 for growth inhibition (viability) (log10 M); higher = less potent. Conditions: SB.msgc-1 (sporadic gastric cancer). In short, it runs like this:
(§1)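 In 1536-well plates, each well held 500 patient-derived gastric cancer cells (hereditary or sporadic) in 5 μL medium. Compound in DMSO, 23 nL per well, was pinned in 11 threefold dilutions starting at a final 46 μM. Following 48 h of exposure, cells had CellTiter-Glo for 30 min at room temperature before ViewLux luminescence reading. Only high-quality curve classes from four-parameter fits of DMSO-normalised viability gave the log half-maximal activity concentration.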

The subject of the next test is SB.mhdgc-1. The test is described as above. Conditions: SB.mhdgc-1 (hereditary c.1380delA CDH1 gastric cancer). The procedure, abridged:
as §1

For the molecule `CCC1=C2C=C(OC(=O)N3CCC(CC3)N4CCCCC4)C=CC2=NC\5=C1CN6C(=O)\C7=C(/C=C56)[C@@](O)(CC)C(=O)OC7` [Irinotecan], the results for the “AC50 for growth inhibition (log10 M)” value with SB.msgc-1 and in the test on SB.mhdgc-1 were -6.73 and -6.78, respectively.

For the molecule `C[C@@H]1CN[C@H]2[C@@H](C)[C@@]\3(CC[C@H]\4[C@@H]5C/C=C6/C[C@@H](O)CC[C@]6(C)[C@H]5CC4=C3C)O[C@@H]2C1` [Cyclopamine], the “AC50 for growth inhibition (log10 M)” value is -4.73 in the test on SB.msgc-1 and -4.68 in the test with SB.mhdgc-1.

On to `CCOC(=O)N1c2ccc(C(F)(F)F)cc2[C@@H](N(Cc2cc(C(F)(F)F)cc(C(F)(F)F)c2)C(=O)OC)C[C@H]1CC` [Torcetrapib], for which the entries for the “AC50 for growth inhibition (log10 M)” value with SB.msgc-1 and in the test with SB.mhdgc-1 were -5.18 and -4.73, respectively.

As to `C=CCO/N=C(/C[C@H]1O[C@@H]2O[C@]3(C)CC[C@H]4[C@H](C)CC[C@@H]([C@H]1C)[C@@]24OO3)[C@H]1O[C@@H]2O[C@]3(C)CC[C@H]4[C@H](C)CC[C@@H]([C@H]1C)[C@@]24OO3` [BTM-2C-dimer allyl oxime], the “AC50 for growth inhibition (log10 M)” value in the test on SB.msgc-1 was -6.58; in the test with SB.mhdgc-1 it was -6.88.

Consider `CC(C)Nc1cc(C(F)(F)F)cc2nc(NC(=O)c3cccnc3)nn12` [S-99], for which the “AC50 for growth inhibition (log10 M)” value with SB.msgc-1 was -5.08; with SB.mhdgc-1, -5.28.

On to `CC/1=C/C(=O)N(O)/C(=C1)C2CCCCC2` [ciclopirox], for which the “AC50 for growth inhibition (log10 M)” value in the test with SB.msgc-1 is -5.43; in the test with SB.mhdgc-1, -4.73.

As for `NC(=O)NO` [Hydroxyurea], the “AC50 for growth inhibition (log10 M)” value was -6.88 in the test on SB.msgc-1 and -6.08 in the test on SB.mhdgc-1.

In the case of `C\C1=C\N([C@H]2C[C@H](N=[N+]=[N-])[C@@H](CO)O2)C(=O)NC1=O` [Zidovudine], the “AC50 for growth inhibition (log10 M)” value with SB.msgc-1 was -4.58; in the test with SB.mhdgc-1, -5.03.

Take `CC(C)C[C@H](NC(=O)CNC(=O)c1cc(Cl)ccc1Cl)B1OC(=O)CC(CC(=O)O)(C(=O)O)O1` (some centres undefined) [Ixazomib citrate]: the “AC50 for growth inhibition (log10 M)” value in the test on SB.msgc-1 was -7.23; in the test on SB.mhdgc-1, -7.03.

With `Cc1nc(N)ncc1-c1nc(N2CCOCC2)c2sc(C(C)(C)O)cc2n1` [GNE-490], the “AC50 for growth inhibition (log10 M)” value with SB.msgc-1 is -7.43; in the test with SB.mhdgc-1, -6.38.

Regarding `CNC(=O)c1ccc(N2C(=S)N(c3ccc(C#N)c(C(F)(F)F)c3)C(=O)C23CCC3)cc1F` [RD-162], the “AC50 for growth inhibition (log10 M)” value is -5.13 with SB.msgc-1 and -5.08 in the test on SB.mhdgc-1.

As to `CSC1=CC(=CC=C1)NC2=NC3=C(C=N2)/C=C(C(=O)N3C)/C4=C(Cl)C=CC=C4Cl`, the “AC50 for growth inhibition (log10 M)” value in the test with SB.msgc-1 is -5.93; with SB.mhdgc-1, -5.78.

On to `CC1(C)CC\C2=C(/O1)C3=C(C=CC=C3)C(=O)C2=O` [beta-Lapachone], for which the entries for the “AC50 for growth inhibition (log10 M)” value with SB.msgc-1 and with SB.mhdgc-1 were -4.63 and -4.58, respectively.

As to `CN1CC/C(CC1)=C3\c4ccccc4CC(=O)c2sccc23` [Ketotifen], the “AC50 for growth inhibition (log10 M)” value in the test on SB.msgc-1 is -4.78; in the test on SB.mhdgc-1, -5.53.

For `O=C(NCC1CCCCN1)c1cc(OCC(F)(F)F)ccc1OCC(F)(F)F` (centres undefined) [Flecainide], the “AC50 for growth inhibition (log10 M)” value with SB.msgc-1 and in the test with SB.mhdgc-1 was -5.03 throughout.

Consider `CN(C)CCCN\C1=C\2C(=O)N(C)C(=O)\N=C2N(C)C3=C1C=CC=C3`, for which the “AC50 for growth inhibition (log10 M)” value in the test on SB.msgc-1 was -4.73; in the test on SB.mhdgc-1, -5.73.

On to `COc1cc2c(cc1OC)[C@@H]1Cc3ccc(OC)c(OC)c3CN1CC2` [Rotundine], for which the “AC50 for growth inhibition (log10 M)” value with SB.msgc-1 was -4.73; in the test with SB.mhdgc-1, -5.28.

As to `CC(C)(O)/C=C\C(=O)[C@](C)(O)[C@H]1[C@H](O)C[C@]2(C)[C@@H]3CC=C4[C@@H](C=C(O)C(=O)C4(C)C)[C@]3(C)C(=O)C[C@@]12C` [Cucurbitacin I], the “AC50 for growth inhibition (log10 M)” value in the test on SB.msgc-1 was -5.98; in the test with SB.mhdgc-1, -7.43.

Regarding `COC1=CC2=C(C=C1CC3=C(F)C(=CC=C3)Cl)C(=O)\C(=C/N2[C@H](CO)C(C)C)C(O)=O` [Elvitegravir], the “AC50 for growth inhibition (log10 M)” value was -4.68 with SB.msgc-1 and -4.78 with SB.mhdgc-1.

As for `CCn1c(-c2nonc2N)nc2cnc(Oc3cccc(NC(=O)c4ccc(OCCN5CCOCC5)cc4)c3)cc21`, the results for the “AC50 for growth inhibition (log10 M)” value in the test with SB.msgc-1 and with SB.mhdgc-1 were -5.18 and -4.98, respectively.

Regarding `CCC[C@H](NC(=O)/C(C#N)=C/c1cccc(Br)n1)c1ccccc1` [Degrasyn], the “AC50 for growth inhibition (log10 M)” value with SB.msgc-1 is -5.43; in the test with SB.mhdgc-1 it was -5.58.

As for `CCCCC[C@H](O)/C=C/[C@H]1[C@H](O)CC(=O)[C@@H]1CCCCCCC(=O)O` [Alprostadil], the “AC50 for growth inhibition (log10 M)” value is -4.68 in the test on SB.msgc-1 and -5.13 with SB.mhdgc-1.

As for `O=[S+]([O-])(O)c1ccc2cc(/N=N/c3cc([S+](=O)([O-])O)c4cccnc4c3O)ccc2c1`, the figures for the “AC50 for growth inhibition (log10 M)” value in the test on SB.msgc-1 and with SB.mhdgc-1 were -4.93 and -4.68, respectively.

For `CCOC(=O)[C@H](CCc1ccccc1)N[C@@H](C)C(=O)N1[C@H](C(=O)O)C[C@@H]2CCC[C@@H]21` [Ramipril], the results for the “AC50 for growth inhibition (log10 M)” value with SB.msgc-1 and in the test with SB.mhdgc-1 were -4.73 and -5.18, respectively.

Regarding `Cc1cccc(-c2[nH]c(C(C)(C)C)nc2-c2ccc3nccnc3c2)n1`, the results for the “AC50 for growth inhibition (log10 M)” value with SB.msgc-1 and in the test on SB.mhdgc-1 were -5.73 and -4.83, respectively.

Turning to `CCCNC(=O)[C@H]1O[C@@H]1C(=O)N[C@H](C(=O)N1CCC[C@H]1C(=O)OC)C(C)CC` (some centres undefined) [CA-074 Me], the “AC50 for growth inhibition (log10 M)” value is -4.73 with SB.msgc-1 and -4.78 with SB.mhdgc-1.

Regarding `c1cc(OCCN2CCCCC2)cc(-c2n[nH]c3ccc(-c4nc[nH]n4)cc23)c1` [CC-401], the “AC50 for growth inhibition (log10 M)” value in the test on SB.msgc-1 and in the test with SB.mhdgc-1 was -4.78 throughout.

`COC(=O)/C=C/C(=O)OC` [Dimethyl fumarate]: the “AC50 for growth inhibition (log10 M)” value with SB.msgc-1 is -5.48; in the test on SB.mhdgc-1 it was -5.68.

Take `Cc1cnc(Nc2ccc(CN3CCOCC3)cc2)nc1Nc1cccc([S+](=O)([O-])NC(C)(C)C)c1` [TG-46]: the “AC50 for growth inhibition (log10 M)” value with SB.msgc-1 is -4.83; in the test on SB.mhdgc-1 it was -4.68.

For `COC[C@H]1OC(=O)C2=COC3=C2[C@@]1(C)\C4=C(\[C@@H]5CC[C@H](O)[C@@]5(C)C[C@H]4OC(C)=O)C3=O` [17_-hydroxy Wortmannin], the “AC50 for growth inhibition (log10 M)” value was -5.58 in the test with SB.msgc-1 and -5.53 in the test on SB.mhdgc-1.

`O=C(Nc1ccc([N+](=O)[O-])cc1Cl)c1cc(Cl)ccc1O` [Niclosamide]: the “AC50 for growth inhibition (log10 M)” value is -5.38 with SB.msgc-1 and -5.88 with SB.mhdgc-1.

For the molecule `O=C(Nc1cc(C(F)(F)F)cc(C(F)(F)F)c1)c1cc(Cl)ccc1O` [IMD-0354], the “AC50 for growth inhibition (log10 M)” value in the test with SB.msgc-1 is -5.73; in the test on SB.mhdgc-1, -5.78.

As for `CCn1cc(-c2ccnc3[nH]c(-c4cccc(CN(C)C)c4)cc23)c(-c2ccc(NC(=O)N(C)C)cc2)n1`, the entries for the “AC50 for growth inhibition (log10 M)” value in the test with SB.msgc-1 and in the test on SB.mhdgc-1 were -4.73 and -5.38, respectively.

As for `O=C1NC(=O)[C@@H](c2cn3c4c(cccc24)CCC3)[C@@H]1c1c[nH]c2ccccc12` [Tivantinib], the “AC50 for growth inhibition (log10 M)” value in the test on SB.msgc-1 is -6.23; with SB.mhdgc-1 it was -6.48.

In the case of `CCC(=O)N[C@H]1CC[C@H](C(=O)N(C)c2ccc(-c3nc4ccccc4o3)cc2)C1` [FASN BI], the “AC50 for growth inhibition (log10 M)” value in the test with SB.msgc-1 and in the test on SB.mhdgc-1 was -5.93 throughout.

As to `CC(C)(C)c1cc(C=C(C#N)C#N)cc(Br)c1O` [AG-1024], the “AC50 for growth inhibition (log10 M)” value was -5.43 with SB.msgc-1 and -5.03 with SB.mhdgc-1.

As for `CC(=O)SCC(Cc1ccccc1)C(=O)NCC(=O)OCc1ccccc1` (centres undefined) [Racecadotril], the “AC50 for growth inhibition (log10 M)” value in the test with SB.msgc-1 is -6.23; in the test with SB.mhdgc-1, -6.68.

As for `CC[C@@H]1C(=O)N(C)c2cnc(Nc3ccc(C(=O)NC4CCC(N5CCN(CC6CC6)CC5)CC4)cc3OC)nc2N1C(C)C` (some centres undefined) [Volasertib], the entries for the “AC50 for growth inhibition (log10 M)” value with SB.msgc-1 and in the test with SB.mhdgc-1 were -7.03 and -5.08, respectively.

In the case of `CCN(CC)C(=S)SSC(=S)N(CC)CC` [Disulfiram], the “AC50 for growth inhibition (log10 M)” value with SB.msgc-1 was -7.28; with SB.mhdgc-1 it was -7.78.

For the molecule `Cn1cnc2c1c(=O)[nH]c(=O)n2C` [Theobromine], the “AC50 for growth inhibition (log10 M)” value is -4.78 with SB.msgc-1 and -4.63 in the test on SB.mhdgc-1.

For the molecule `Cc1cc(Cl)ccc1OCCCC(=O)NO` [Droxinostat], the “AC50 for growth inhibition (log10 M)” value is -4.83 in the test on SB.msgc-1 and -5.98 in the test with SB.mhdgc-1.

Consider `O=C(Nc1ccc(F)c(C(F)(F)F)c1)Nc1nnc(-c2ccncc2)s1`, for which the “AC50 for growth inhibition (log10 M)” value in the test on SB.msgc-1 was -5.28; with SB.mhdgc-1, -5.53.

As for `CN(C)Cc1cccc(N/C(=C2\C(=O)Nc3cc(C(=O)N(C)C)ccc32)c2ccccc2)c1`, the “AC50 for growth inhibition (log10 M)” value is -5.23 in the test with SB.msgc-1 and -5.48 in the test on SB.mhdgc-1.

`C=CC(=O)N1CCC[C@@H](n2nc(-c3ccc(Oc4ccccc4)cc3)c3c(N)ncnc32)C1`: the “AC50 for growth inhibition (log10 M)” value in the test on SB.msgc-1 was -7.48; in the test on SB.mhdgc-1, -5.98.

Regarding `OC1=CC2=C(C(=C1)O)C(=O)\C(=C(/O2)C3=CC(=C(O)C=C3)O)O` [Quercetine], the “AC50 for growth inhibition (log10 M)” value in the test with SB.msgc-1 is -4.68; in the test with SB.mhdgc-1 it was -5.13.

For `CC/C(=C(/CC)c1ccc(O)cc1)c1ccc(O)cc1` [Diethylstilbestrol], the “AC50 for growth inhibition (log10 M)” value in the test on SB.msgc-1 is -4.83; with SB.mhdgc-1, -5.53.

In the case of `CN(C)[C@@H](CCOc1cccc2ccccc12)c1ccccc1` [Dapoxetine hydrochloride], the “AC50 for growth inhibition (log10 M)” value is -4.73 with SB.msgc-1 and -5.48 in the test with SB.mhdgc-1.
